The target in test [1] is ENPP1 on MDA-MB-231 cells (Homo sapiens (Human), UniProt P22413). Put plainly: Assay 3: inhibition of ENPP1 hydrolysis of AMP p-nitrophenyl ester on MDA-MB-231 cells.
Method: Hydrolysis of the p-nitrophenyl ester of AMP (pNP-AMP), an isostere of ATP, is selectively catalyzed by ENPP1 in the supernatant of MDA-MB-231 cell cultures. Inhibition of the hydrolysis of pNP-AMP by MDA-MB-231 at pH 7.4 and 37° C., is a good model of physiologically relevant activity of membrane-bound ENPP1 at disease-relevant expression levels.
MDA-MB-231 cells were harvested using TypLE Express Enzyme digestion and suspended in 100 μL of Leibovitz's L-15 Medium, 20% FBS, seeding the cells in a 96-well assay plate with 4.5×10^4 cells/well. Cells were incubated at 37° C. with 1% CO2 for 24 h. In a separate dilution plate, 2× of top dose of compound was prepared in phenol-red free 1640 medium without FBS and then 1:3 serial diluted in the same medium. The cell culture medium of L15 medium was aspirated carefully and cells were washed with PBS once, and 50 μL per well of test compound or DMSO blank were added to the assay plate. Substrate mix (50 μL; 0.5 mM pNP-AMP in phenol-red free 1640 media without FBS) was added for a pNP-AMP final concentration of 0.25 mM. The system was incubated at 37° C. for 3 h.
Test [2] concerns the target T1, ENPP-1 ECD (Homo sapiens (Human), UniProt P22413). Briefly: Assay 1: inhibition of ENPP1 hydrolysis of 2′,3′-cGAMP (AMP-Glo, […] enzyme).
Method: Assay 1: Test compounds were plated in a 3× dilution scheme in a 384 well plate. […] AMP Detection solution (100 μL) was added to each well, the plate centrifuged and incubated for 60 min.
Test [3] concerns the target T1, ENPP-1 ECD. Put plainly: Assay 2: inhibition of ENPP1 hydrolysis of 2′,3′-cGAMP (AMP-Glo, […] enzyme).
Method: Assay 2: Compared to the conditions in Assay 1, this assay has a larger dynamic range and ensures the system is under steady-state conditions by reducing the enzyme concentration in the assay.
Test compounds were plated in a 3× dilution scheme in a 384 well plate. […] AMP Detection solution (10 μL) was added to each well, the plate centrifuged and incubated for 60 min.
[4] abbreviates: Assay 1 (IC50), ENPP1 hydrolysis of 2′,3′-cGAMP, AMP-Glo.
Where [5] appears, read: Assay 1 (IC50), inhibition of ENPP1 hydrolysis of 2′,3′-cGAMP, no unit in Table 18 (Table 17 legend for this assay uses nM).
[6] abbreviates: Assay 2 (KI), ENPP1 hydrolysis of 2′,3′-cGAMP, AMP-Glo, […] ENPP-1, 24 μM cGAMP.
Setting [7] is: Assay 2 (KI), inhibition of ENPP1 hydrolysis of 2′,3′-cGAMP, no unit in Table 18 (Table 17 legend for this assay uses nM).
The mark [8] stands for this setting: read-out: Assay 1 (IC50), ENPP1 hydrolysis of 2′,3′-cGAMP, AMP-Glo.
Where [9] appears, read: read-out: Assay 3 (KI, app), apparent KI from IC50 via Cheng/Prusoff, pNP-AMP […], MDA-MB-231 cells, pH 7.4, 37° C., 3 h, unit inferred.
The mark [10] stands for this setting: read-out: Assay 1 (IC50), inhibition of ENPP1 hydrolysis of 2′,3′-cGAMP, no unit in Table 18 (Table 17 legend for this assay uses nM).
Setting [11] is: read-out: Assay 2 (KI), ENPP1 hydrolysis of 2′,3′-cGAMP, AMP-Glo, […] ENPP-1, 24 μM cGAMP.
Setting [12] is: read-out: Assay 2 (KI), inhibition of ENPP1 hydrolysis of 2′,3′-cGAMP, no unit in Table 18 (Table 17 legend for this assay uses nM).
Setting [13] is: IC50 in Assay 1, […] ENPP-1 ECD, 24 μM 2,3-cGAMP, pH 8.0.
Where [14] appears, read: KI in Assay 2, […] ENPP-1 ECD, 24 μM 2,3-cGAMP, pH 8.0, converted from IC50 via Cheng/Prusoff.

Where two headings read alike, the source gives them in different places.

T1 sequence (P22413 98-925): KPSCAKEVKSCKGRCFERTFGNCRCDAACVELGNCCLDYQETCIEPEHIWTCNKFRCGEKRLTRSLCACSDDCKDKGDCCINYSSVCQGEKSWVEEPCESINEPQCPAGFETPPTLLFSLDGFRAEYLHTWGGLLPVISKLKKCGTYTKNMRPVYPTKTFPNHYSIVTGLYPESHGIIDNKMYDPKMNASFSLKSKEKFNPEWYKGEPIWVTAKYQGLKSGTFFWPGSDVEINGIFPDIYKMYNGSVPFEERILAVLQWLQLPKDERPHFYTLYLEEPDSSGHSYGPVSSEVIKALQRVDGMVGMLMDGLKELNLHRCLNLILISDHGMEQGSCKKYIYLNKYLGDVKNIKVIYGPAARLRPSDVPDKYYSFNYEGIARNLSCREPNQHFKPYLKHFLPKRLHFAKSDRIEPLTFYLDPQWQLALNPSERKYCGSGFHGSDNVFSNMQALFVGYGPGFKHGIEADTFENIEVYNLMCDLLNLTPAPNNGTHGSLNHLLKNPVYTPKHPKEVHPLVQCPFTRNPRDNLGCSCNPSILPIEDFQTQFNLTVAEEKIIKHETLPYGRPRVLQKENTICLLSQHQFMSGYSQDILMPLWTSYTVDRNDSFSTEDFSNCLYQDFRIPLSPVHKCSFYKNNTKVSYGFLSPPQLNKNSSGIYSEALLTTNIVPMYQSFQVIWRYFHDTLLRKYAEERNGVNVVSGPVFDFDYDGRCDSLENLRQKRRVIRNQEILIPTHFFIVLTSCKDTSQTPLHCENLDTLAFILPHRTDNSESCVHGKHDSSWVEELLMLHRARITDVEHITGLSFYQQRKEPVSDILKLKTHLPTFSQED
Sequence of ENPP1 on MDA-MB-231 cells (P22413 whole entry, the tested form may be a part): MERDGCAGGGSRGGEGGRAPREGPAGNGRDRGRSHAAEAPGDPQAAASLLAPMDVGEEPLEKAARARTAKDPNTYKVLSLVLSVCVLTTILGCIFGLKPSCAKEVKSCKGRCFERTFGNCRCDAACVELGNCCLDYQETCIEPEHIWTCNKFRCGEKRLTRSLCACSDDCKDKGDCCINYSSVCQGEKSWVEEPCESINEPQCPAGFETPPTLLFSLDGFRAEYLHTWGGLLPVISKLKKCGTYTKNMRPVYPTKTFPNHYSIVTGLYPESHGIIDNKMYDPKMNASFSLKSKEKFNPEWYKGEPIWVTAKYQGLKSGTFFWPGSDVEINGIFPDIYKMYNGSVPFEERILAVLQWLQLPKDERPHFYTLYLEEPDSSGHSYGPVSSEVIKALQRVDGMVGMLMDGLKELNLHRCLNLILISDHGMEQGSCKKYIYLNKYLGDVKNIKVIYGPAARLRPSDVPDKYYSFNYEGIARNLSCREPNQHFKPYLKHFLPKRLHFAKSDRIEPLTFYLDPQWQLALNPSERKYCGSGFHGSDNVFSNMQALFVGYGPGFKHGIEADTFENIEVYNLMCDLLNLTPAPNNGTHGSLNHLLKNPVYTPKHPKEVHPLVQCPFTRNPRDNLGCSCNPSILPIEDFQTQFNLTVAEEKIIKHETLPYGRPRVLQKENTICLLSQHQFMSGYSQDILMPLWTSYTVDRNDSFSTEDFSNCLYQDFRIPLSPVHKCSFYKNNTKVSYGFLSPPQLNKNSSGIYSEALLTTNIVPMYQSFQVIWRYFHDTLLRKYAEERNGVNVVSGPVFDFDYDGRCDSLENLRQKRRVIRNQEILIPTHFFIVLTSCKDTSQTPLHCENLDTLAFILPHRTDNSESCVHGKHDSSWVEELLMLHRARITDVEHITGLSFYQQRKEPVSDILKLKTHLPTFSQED

Regarding `COc1ccc2c(Oc3ccc(S(C)(=N)=O)nc3)ccnc2c1` (stereo not drawn) [Compound 101, imino({5-[(7-methoxyquinolin-4-yl)oxy]pyridin-2-yl})methyl-λ^6-sulfanone], the Ki was 300 nM in test [1], 3 to 300 nM in test [3] (setting [6]) and 5.4 nM in test [3] (setting [7]). In addition, the IC50 in test [2] (setting [4]) is 10 to 1000 nM; in test [2] (setting [5]), 40 nM.
For the compound `CCS(=N)(=O)c1ccc(Oc2ccnc3cc(OC)ccc23)cc1` (stereo not drawn) [Compound 103, ethyl(imino)(4-((7-methoxyquinolin-4-yl)oxy)phenyl)-λ^6-sulfanone], the Ki in test [1] was 49 nM; in test [3] (setting [6]), less than 3 nM; in test [3] (setting [7]) it was 1.3 nM. Moreover, the figures for the 50% inhibitory concentration (IC50) in test [2] (setting [5]) and in test [2] (setting [8]) were 9 nM and less than 10 nM, respectively.
On to `CC[S@](=N)(=O)c1ccc(Oc2ccnc3cc(OC)ccc23)cc1` [Compound 103b], for which the figures for the Ki in test [1] (setting [9]), in test [3] (setting [11]) and in test [3] (setting [12]) were 30 nM, less than 3 nM and 0.31 nM, respectively. Besides, the IC50 in test [2] (setting [8]) is less than 10 nM; in test [2] (setting [10]) it was 2.2 nM.
With `COc1cc2nccc(Oc3ccc(S(C)(=N)=O)cc3)c2cc1F` (stereo not drawn) [Compound 114, {4-[(6-fluoro-7-methoxyquinolin-4-yl)oxy]phenyl}(imino)methyl-λ^6-sulfanone], the Ki in test [1] is 19 nM; in test [3] (setting [6]) it was less than 3 nM; in test [3] (setting [7]) it was 0.27 nM. In test [2] (setting [5]), this compound gave an IC50 of 2.8 nM.
Take `COc1cc2nccc(Oc3ccc([S@](C)(=N)=O)cc3)c2cc1F` [Compound 114a]: the Ki in test [1] (setting [9]) was 6.3 nM; in test [3] (setting [11]), less than 3 nM; in test [3] (setting [12]) it was 0.088 nM. In addition, the IC50 in test [2] (setting [8]) is less than 10 nM; in test [2] (setting [10]), 0.94 nM.
Turning to `COc1cc2nccc(Oc3ccc(S(=N)(=O)C4CC4)cc3)c2cc1F` (stereo not drawn) [Compound 120, [cyclopropyl({4-[(6-fluoro-7-methoxyquinolin-4-yl)oxy]phenyl})imino-λ^6-sulfanyl]one], the Ki is 6.2 nM in test [1], less than 3 nM in test [3] (setting [6]) and 0.12 nM in test [3] (setting [7]). The IC50 in test [2] (setting [5]) is 1.1 nM; in test [2] (setting [8]) it was less than 10 nM.
In the case of `COc1cc2nccc(Oc3ccc([S@@](=N)(=O)C4CC4)cc3)c2cc1F` [Compound 120a], the Ki in test [1] (setting [9]) was 6.5 nM; in test [3] (setting [11]), less than 3 nM; in test [3] (setting [12]) it was 0.05 nM. The values for the IC50 in test [2] (setting [8]) and in test [2] (setting [10]) were less than 10 nM and 0.46 nM, respectively.
Turning to `COc1cc2nncc(Oc3ccc(S(C)(=N)=O)cc3)c2cc1OC` (stereo not drawn) [Compound 127, {4-[(6,7-dimethoxycinnolin-4-yl)oxy]phenyl}(imino)methyl-λ^6-sulfanone], the Ki in test [1] was 380 nM; in test [3] (setting [6]), 3 to 300 nM; in test [3] (setting [7]), 5 nM. The IC50 in test [2] (setting [4]) was 10 to 1000 nM; in test [2] (setting [5]) it was 30 nM.
For the compound `COc1ccc2c(OCc3cccc(S(C)(=N)=O)c3)ccnc2c1` (stereo not drawn) [Compound 133, imino(3-{[(7-methoxyquinolin-4-yl)oxy]methyl}phenyl)methyl-λ^6-sulfanone], the Ki in test [1] was 13 nM; in test [3] (setting [6]) it was less than 3 nM; in test [3] (setting [7]), 0.12 nM. In test [2] (setting [5]), this compound showed an IC50 of 1.4 nM.
`COc1ccc2c(OCc3cccc([S@@](C)(=N)=O)c3)ccnc2c1` [Compound 133a]: the Ki in test [1] (setting [9]) is 4.1 nM; in test [3] (setting [11]) it was less than 3 nM; in test [3] (setting [12]) it was 0.055 nM. For the same compound, the IC50 was less than 10 nM in test [2] (setting [8]) and 0.5 nM in test [2] (setting [10]).
For the compound `COc1ccc2c(OCc3ccc(S(C)(=N)=O)cc3F)ccnc2c1` (stereo not drawn) [Compound 135, (3-fluoro-4-{[(7-methoxyquinolin-4-yl)oxy]methyl}phenyl)(imino)methyl-λ^6-sulfanone], the Ki in test [1] is 110 nM; in test [3] (setting [6]) it was less than 3 nM; in test [3] (setting [7]), 1.4 nM. This compound returned a half-maximal inhibitory concentration (IC50) in test [2] (setting [5]) of 7.8 nM.
Regarding `COc1cc2nccc(OCc3ccc(S(C)(=N)=O)cc3)c2cc1F` (stereo not drawn) [Compound 136], the Ki in test [1] was 29 nM; in test [3] (setting [6]), less than 3 nM; in test [3] (setting [7]), 0.32 nM. Besides, the concentration for half-maximal inhibition (IC50) was 2 nM in test [2] (setting [5]) and less than 10 nM in test [2] (setting [8]).
As for `COc1cc2nccc(OCc3ccc(S(C)(=N)=O)cc3)c2cc1OC` (stereo not drawn) [Compound 138, (4-{[(6,7-dimethoxyquinolin-4-yl)oxy]methyl}phenyl)(imino)methyl-λ^6-sulfanone], the Ki in test [1] was 140 nM; in test [3] (setting [6]), 3 to 300 nM; in test [3] (setting [7]), 4.6 nM. The IC50 in test [2] (setting [4]) is 10 to 1000 nM; in test [2] (setting [5]) it was 37 nM.
As for `COc1cc2nccc(N3CCC(CCS(C)(=N)=O)CC3)c2cc1Cl` (stereo not drawn) [Compound 141, {2-[1-(6-chloro-7-methoxyquinolin-4-yl)piperidin-4-yl]ethyl}(imino)methyl-λ^6-sulfanone], the values for the Ki in test [1], in test [3] (setting [6]) and in test [3] (setting [7]) were 16 nM, less than 3 nM and 0.25 nM, respectively. In test [2] (setting [5]), this compound came in with an IC50 of 2.1 nM.
For `COc1cc2nccc(N3CCC(CCS(C)(=N)=O)CC3)c2cc1F` (stereo not drawn) [Compound 150, {2-[1-(6-fluoro-7-methoxyquinolin-4-yl)piperidin-4-yl]ethyl}(imino)methyl-λ^6-sulfanone] the same measures were 62 nM, less than 3 nM, 1.3 nM and 8.6 nM.
On to `COc1cc2nncc(N3CCC(CCS(C)(=N)=O)CC3)c2cc1OC` (stereo not drawn) [Compound 151, {2-[1-(6,7-dimethoxycinnolin-4-yl)piperidin-4-yl]ethyl}(imino)methyl-λ^6-sulfanone], for which the figures for the Ki in test [1], in test [3] (setting [6]) and in test [3] (setting [7]) were 59 nM, less than 3 nM and 0.57 nM, respectively. The IC50 in test [2] (setting [5]) turned out to be 6.2 nM.
Regarding `COc1cc2ncc(C#N)c(N3CCC(CCS(C)(=N)=O)CC3)c2cc1Cl` (stereo not drawn) [Compound 152, 6-chloro-4-(4-{2-[imino(methyl)oxo-λ6-sulfanyl]ethyl}piperidin-1-yl)-7-methoxyquinoline-3-carbonitrile], the figures for the Ki in test [1], in test [3] (setting [6]) and in test [3] (setting [7]) were 26 nM, less than 3 nM and 0.41 nM, respectively. Also, the figures for the half-inhibitory concentration (IC50) in test [2] (setting [5]) and in test [2] (setting [8]) were 2.4 nM and less than 10 nM, respectively.
`COc1cc2nccc(-c3ccc4c(c3)CN(S(C)(=N)=O)CC4)c2cc1OC` (stereo not drawn) [Compound 161, [7-(6,7-dimethoxyquinolin-4-yl)-1,2,3,4-tetrahydroisoquinolin-2-yl](imino)methyl-λ^6-sulfanone]: the Ki in test [1] was 3.7 nM; in test [3] (setting [6]), less than 3 nM; in test [3] (setting [7]), 0.051 nM. The IC50 in test [2] (setting [5]) and in test [2] (setting [13]) was 1.3 nM in each case.
For the compound `COc1cc2nccc(Oc3ccc(S(N)(=O)=O)cc3)c2cc1OC` [reference compound], the Ki turned out to be 380 nM in test [1] and 32 nM in test [3] (setting [14]). This compound also returned an IC50 in test [2] (setting [13]) of 190 nM.
For the compound `COc1cc2ncc(C#N)c(N3CCC4(CC3)CCN(S(N)(=O)=O)C4)c2cc1F` [reference compound], the Ki turned out to be 24 nM in test [1] and 0.47 nM in test [3] (setting [14]). In test [2] (setting [13]), this compound had an IC50 of 2.9 nM.

The values above are taken from patent publication US11780849B2, “Imino sulfanone inhibitors of ENPP1” (Volastra Therapeutics, Inc., priority 2020, dated 2023).
